Data from patent publication US20210214341A1, “SUBSTITUTED PYRIDINYL AZETIDINONE DERIVATIVES FOR USE IN TREATING CANCER AND OTHER DISEASES” (The Board of Regents of the University of Texas System, priority 2018, published 2021).
Where two headings read alike, the source gives them in different places.

Key:
[1] = test system: CaPan-2; assay: Cytotoxicity IC50 in CaPan-2 cells; format: cell-based; conditions: Homo sapiens; CaPan-2 cell line; read-out: IC50 (mean ± standard error)
Source text: (§1) B. Cytotoxicity Studies: Determination of IC50 Values (Single Run) in Capan-2, HPAC. HPAF-II, and HS766T Cell Lines
(§2) Capan-2, HPAC. HPAF-H, and HS766T. The compounds A, D, E, G, and H were chosen randomly, out of twelve β-laclam molecules, to carry out this evaluation.

[2] = test system: HPAC; assay: Cytotoxicity IC50 in HPAC cells; format: cell-based; conditions: Homo sapiens; HPAC cell line; read-out: IC50 (mean ± standard error)
Source text: as §1, §2

[3] = test system: HPAF-II; assay: Cytotoxicity IC50 in HPAF-II cells; format: cell-based; conditions: Homo sapiens; HPAF-II cell line; read-out: IC50 (mean ± standard error)
Source text: as §1, §2

[4] = test system: HS 766T; assay: Cytotoxicity IC50 in HS 766T cells; format: cell-based; conditions: Homo sapiens, Hs766T; HS 766T cell line; read-out: IC50 (mean ± standard error)
Source text: as §1, §2

[5] = test system: pancreatic cancer cells PANC-1 (ATCC CRL-1469); assay: SRB (Sulforhodamine B) assay in PANC-1 cells; format: cell-based; conditions: Homo sapiens, PANC-1
Experimental: (§3) FIGS. 1A-1B show the IC50 curves of the twelve investigational β-lactams in pancreatic cancer cells PANC-1 (ATCC CRL-1469) and normal pancreatic ductal epithelial cells (ATCC CRL-4038). The GraphPad Prism software was used to process the results. The IC50 values were determined by SRB (Sulforhodamine B) assay following standard procedure. PANC-1 cells were plated in 96 well plates and treated with 1, 10, 100, 1000 and 10,000 nM of each of the drugs in triplicate for 72 hrs. Cells were fixed, washed and stained with SRB dye, the stained cells were washed, and the dye solubilized. It was read using a plate reader at 565 nm. The IC50 values were calculated assuming that the 10 μM sample has reached saturation. Following similar way, IC50 values were determined for normal pancreatic ductal epithelial cells.
(§4) As mentioned earlier, PANC-1 is referred to generically as the “gold standard of pancreatic cancers” representing as it does almost total resistance to GEM, the first line treatment currently used in clinical situations. Pancreatic cancer cells PANC-1 (ATCC CRL-1469) and normal pancreatic ductal epithelial cells (ATCC CRL-4038) were used in this study. The GraphPad Prism software was used to process the results. […] Cells were fixed, washed and stained with SRB dye, the stained cells were washed, and the dye solubilized. It was read using a plate reader at 565 nm. The IC50 values were calculated assuming that the 10 μM sample has reached saturation. Following similar way, IC50 values were determined for normal pancreatic ductal epithelial cells.

[6] = test system: normal pancreatic ductal epithelial cells (ATCC CRL-4038); assay: SRB (Sulforhodamine B) assay in normal pancreatic ductal epithelial cells; format: cell-based; conditions: Epithelial cell; 2D-culture, SRB, average of 3 runs; read-out: IC50 (NPC)
Experimental: as §3, §4

[7] = test system: PANC-1 tumorspheres; assay: 3D-tumorsphere formation assay; format: cell-based, human
Experimental: Number of tumorspheres formed can be used to distinguish the efficacy of different anticancer drugs in a more physically acceptable method than 2D culture. Based on selectivity and toxicity towards PANC-1 cells in comparison to normal pancreatic ductal epithelial cells (Table D), six compounds (A, B, C, E, F, and G) were chosen for the 3D-tumorsphere formation assay. The assay was carried out by following the protocol developed by Johnson et al., (2013). PANC-1 cells (5000) were plated as single cells in Corning ultra-low attachment 24 well plates in 0.5 ml DMEM+10% FBS. The cells were grown in a humidified atmosphere of 5% CO2 for 168 hrs. 0.1 ml Media was added on 72nd and 144 hrs. The β-lactams were dissolved in DMSO and maintained at −20° C. On the day of assay, on the addition of media, the drugs were freshly diluted in media. The final concentrations of drugs were 0, 1 nM, 10 nM, 100 nM, 1 uM, 10 μM. After 144 hours the total number tumorspheres that were larger than 100 micrometers were counted in a field of 1 mm×1 mm at 10× magnification in a bright field microscope. The data was plotted and the IC50 value was calculated.
3D-tumorsphere formation assay is considered to be a fast and economical intermediary step between in vitro and in vivo biological evaluations. A tumorsphere is a solid, spherical formation developed from the proliferation of a single cancer stem/progenitor cell in 3D culture. These cells are easily distinguishable from single or aggregated as they appear to become fused together and individual cells cannot be appearing to become fused together and individual cells cannot be identified. The size can vary from less than 50 micrometers to 250 micrometers. The number of tumorspheres formed can be used to characterize the cancer stem cell population within different in vitro cultured cancer cell lines. The number of tumorspheres formed can also be used to distinguish the efficacy of different anticancer drugs in a more physically acceptable method than 2D culture. Based on selectivity and toxicity towards PANC-1 cells in comparison to normal pancreatic ductal epithelial cells (Table D), six compounds (A, B, C, E, F, and G) were chosen for the 3D-tumorsphere formation assay. The assay was carried out by following the protocol developed by Johnson et al., (2013). […] The below steps were followed to accomplish the assay. • 5000 PANC-1 cells were plated as single cells in Corning ultra-low attachment 24 well plates in 0.5 ml DMEM+10% FBS. • Cells were grown in a humidified atmosphere of 5% CO2 for 168 hrs. 0.1 ml Media was added on 72nd and 144 hrs. • Drugs were dissolved in DMSO and maintained at −20° C. On the day of assay, on the addition of media, the drugs were freshly diluted in media. • The final concentrations of drugs were 0, 1 nM, 10 nM, 100 nM, 1 μM, 10 μM. • After 144 hrs the total number tunorspheres that were larger than 100 micrometers were counted in a field of 1 mm×1 mm at 10× magnification in a bright field microscope. The data was plotted and the IC50 value was calculated.

[8] = test system: PANC-1 cells; assay: Flow cytometric cell cycle analysis; format: cell-based, human; conditions: tested for 24, 48 and 72 hrs
Experimental: The noise was cleared. […] After 72 hrs all the cells (including floaters) were collected, the adhered cells were trypsinized and collected as well. The cells were then centrifuged in a 50 mL centrifuge tube. The pellet was washed with PBS and reconstituted in 500 μL PBS. The cells were then fixed in ice cold ethanol by adding the ethanol dropwise while gently vortexing the cells. Stored at 4° C. for overnight. The cells were then centrifuged, and the pellet reconstituted in Guava cell cycle reagent and analyzed in a Guava flow cytometer. A similar experiment was conducted with normal pancreatic ductal epithelial cells (NPC) and the drug treatment was done according to the IC50 values observed in the 2D assay conducted on them (Table E). Please note that 2N represents G0/G1 and 4N for G2 phases.
After 72 hrs all the cells (including floaters) were collected, the adhered cells were trypsinized and collected as well. The cells were then centrifuged in a 50 mL centrifuge tube. The pellet was washed with PBS and reconstituted in 500 μL PBS. The cells were then fixed in ice cold ethanol by adding the ethanol dropwise while gently vortexing the cells. […] The cells were then centrifuged, and the pellet reconstituted in Guava cell cycle reagent and analyzed in a Guava flowcytometer. […] First set of data with PANC-1 cells were analyzed by using FlowJo software, the noise was cleared (FIG. 3). […]

[9] = test system: PANC-1 cells; assay: Annexin V assay to determine apoptosis; format: cell-based, human; conditions: 0.5, 1, and 2 μM, 16 hrs
Experimental: Cell death was identified as apoptosis through Annexin V assay. For this study, PANC-1, the most commonly known drug-resistance pancreatic cancer cell line was used. […] Error bars show standard deviation (n=3). For optimal throughput, final cell concentrations were maintained between 2×10^4 and 1×10^5 cells/well (or 1×10^5 to 5×10^5 cells/mL). Doxorubicin was used as control at a concentration of 5 μM for 16 hrs. For this study, PANC-1, the most commonly known drug-resistance pancreatic cancer cell lines were used. […] Error bars show standard deviation (n=3). For optimal throughput, final cell concentrations were maintained between 2×10^4 and 1×10^5 cells/well (or 1×10^5 to 5×10^5 cells/mL). Doxorubicin was used as a control at a concentration of 5 uM for 16 hrs (FIG. 5). Apoptosis was identified as the mechanism of cell death.

[10] = test system: Phospho-Histone H2A.X (Ser139) in PANC-1 cells; assay: ICC-IF with Phospho-Histone H2A.X (Ser139) (γ-H2AX staining); format: cell-based, human; conditions: 1 μM, compared to control
Source text: This immunocytochemistry-immunofluorescence (ICC-IF) with Phospho-Histone H2A.X (Ser139) assay enables the quantitative detection of the histone variant H2AX, phosphorylated on serine 139. This modification serves as a sensitive biomarker for the detection of such breaks, localizing the site of DNA repair. Gamma-H2AX triggers cell cycle arrest and DNA damage response repair, and this assay is used to study genome stability, the cell cycle, DNA repair, and it serves as a biomarker for cancer and offers enhanced convenience over other immunoassay technologies. The PANC-1 cells were grown, treated with 1 μM concentration of the compound “D”, fixed and strained directly in chamber slides. Cells were submerged with blocking buffer for 60 min and then incubated with primary antibody Phospho-Histone H2A.X (Ser139) for overnight at 4° C. Then the cells were rinsed for three times in 1×PBS for 5 min each. The specimen was incubated in fluorochrome-conjugated secondary antibody diluted in antibody dilution buffer for 1-2 h at room temperature in the dark and then rinsed for three times in 1×PBS for 5 min each. […]
This assay was also performed with the compound D, prior to the determination of IC50 values in normal pancreatic ductal epithelial cell lines. This assay enables the quantitative detection of the histone variant H2AX, phosphorylated on serine 139. […]

[11] = test system: PANC-1 cells; assay: BrdU incorporation immunostaining; format: cell-based, human; conditions: compared to control
Experimental: BrdU (5-bromo-2′-deoxyuridine) incorporation to proceed with immunostaining coverslip slides with Prolong® Gold Antifade reagent were visualized under microscope. Alexa Fluor® 488 (green) was used for BrdU staining along with nuclear marker DAPI (blue). BrdU images were co-localized with nuclear marker DAPI blue.
Diluted BrdU in fresh, pre-warmed growth medium to a final concentration of 0.03 mg/mL. This mixture was added to cells and incubated at 37° C. for 30 min. The medium was aspirated; cells were completely covered with 70% ethanol for 5 min. The fixative was aspirated and the cells were rinsed three times in 1×PBS for 5 min each. Therefore, 1.5 mL HCl and incubated for 30 min at room temperature. Then the HCl was aspirated and rinsed to times in 1×PBS for 5 min each. Subsequent proceeding for immunostaining followed the below steps: The cells were submerged with blocking buffer for 60 min and subsequently incubated with primary antibody (BrdU Mouse mAb) for overnight at 4° C. Therefore, the cells were rinsed three times in 1×PBS for 5 min each and incubated in fluorochrome-conjugated secondary antibody diluted in antibody dilution buffer for 1-2 h at room temperature in the dark and then rinsed for three times in 1×PBS for 5 min each. Coverslip slides with Prolong® Gold Antifade reagem were visualized under microscope. […]

[12] = test system: drug-resistant pancreatic cancer cell lines; assay: IC50 against drug-resistant pancreatic cancer cell lines; format: cell-based; conditions: Homo sapiens, range over cell lines
[13] = 2D-culture, SRB, 72 hrs, average of 3 runs, read-out: IC50 (PANC-1)

IC50 ([5]; in vitro, triplicate, read-out: PANC-1 cell lines IC50) [nM] | IC50 [12] [nM] | Structure (SMILES) | IC50 [1] [nM] | IC50 [2] [nM] | IC50 [3] [nM] | IC50 [4] [nM] | IC50 [5, 13] [nM] | IC50 [6] [nM] | activity in 3D-tumorsphere formation assay compared with 2D-culture [7] | IC50 ([7]; Homo sapiens, tumorspheres larger than 100 micrometers counted after 144 hrs) [nM] | time of maximum cell cycle blockage [8] [h] | mechanism of cell death [9] | γ-H2AX (phospho-H2AX) staining [10] | rate of DNA replication and subsequent cell proliferation (BrdU incorporation) [11]
 |  | CS(=O)(=O)O[C@@H]1C(=O)N(c2cc3c4ccccc4ccc3c3ccccc23)[C@H]1c1ccc(F)cn1 (racemic) [A, (±)-Trans-N-(chrysen-6-yl)-2-(5-fluoropyridin-2-yl)-4-oxoazetidin-3-yl methanesulfonate] | > 10000 | > 10000 | 980 ± 380 | 240 ± 380 | 21.2 | 449 | higher activity in 3D-tumorphere formation assay than 2D-culture | 18.1 | 72 |  |  | 
 |  | O=C1[C@@H](OS(=O)(=O)C2CCC2)[C@H](c2ccc(F)cn2)N1c1cc2c3ccccc3ccc2c2ccccc12 (racemic) [D, (±)-Trans-N-(chrysen-6-yl)-2-(5-fluoropyridin-2-yl)-4-oxoazetidin-3-yl cyclobutanesulfonate] |  |  | 1390 ± 400 | 730 ± 400 | 118 | 60.8 |  |  |  | Apoptosis | positive staining | significantly low
37900 | ≥ 16000 | Nc1ccn([C@@H]2O[C@H](CO)[C@@H](O)C2(F)F)c(=O)n1 [Gemcitabine, reference compound] | > 50000 | > 50000 | > 50000 | 16300 ± 600 | 37900 |  |  |  |  |  |  | 
